In article PMC4038554, “Human CD4^+ T Cell Responses to the Dog Major Allergen Can f 1 and Its Human Homologue Tear Lipocalin Resemble Each Other” (PLoS ONE, 2014):
“And” between values parts separate entries of the source, which are not always exact repeats. Identical values can stand only once. Like-named read-outs stand apart in the source and are kept apart here.

Key:
DRB1*1301 = DRB1*1301 (Homo sapiens, UniProt P01903+P01911, A100E/A169T/K41T/L162R/M171V/P40S/Q125H/Q178H/Q39Y/Q99D/R42S/S66N/T262R/W38E/Y61H); assay: HLA class II peptide-binding assay (competitive ELISA); conditions: immunopurified HLA, reference peptide IC50 208 nM, ratio ≤20 high affinity, 20–200 moderate affinity
DRB4 = assay: as above; parameters: species or system human
DRB1*0301 = DRB1*0301 (Homo sapiens, UniProt P01903+P01911, A100K/A102G/A103R/A169T/F55Y/I96L/K41T/L162R/M171V/P40S/Q125H/Q178H/Q39Y/R42S/S66N/T106N/T262R/W38E/Y61H); assay: as above; conditions: immunopurified HLA, reference peptide IC50 423 nM, ratio ≤20 high affinity, 20–200 moderate affinity
DRB1*0101 = DRB1*0101 (Homo sapiens, UniProt P01903+P01911, A100R/D57E/F55L/F60I/F76Y/I96L/L162R/M171V/P40L/Q125E/R42F/V115G/Y59C); assay: as above; conditions: immunopurified HLA, reference peptide IC50 3 nM, ratio ≤20 high affinity, 20–200 moderate affinity
[1] = test system: CD25-depleted PBMCs (CD4+ T cells); assay: Generation of peptide-specific CD4+ T cell lines with the split-well method (frequency of specific TCLs); format: cell-based, human; conditions: for positive specific TCLs out of 30 replicate wells per subject: peptides at 2 µM, 10^5 PBMCs per well, mean±SEM, SEM; for estimated average precursor frequency of peptide-specific T cells: estimated from TCL frequencies, assuming 30% CD4+ T cells in PBMCs
Procedure: After isolating peripheral-blood mononuclear cells (PBMCs) by Ficoll-Paque Plus density gradient centrifugation (GE Healthcare Biosciences, Uppsala, Sweden), CD4^+CD25high regulatory T cells were depleted with anti-CD25-magnetic beads (Miltenyi Biotec, Bergisch Gladbach, Germany), to enhance the induction of both autoreactive and allergen-reactive CD4^+ T cell responses, as previously described, [34].The CD25-depleted PBMCs were seeded in 96-well U-bottomed plates (Corning Incorporated, Corning, USA; 10^5 PBMCs per well) in the presence of pooled Can f 1 or TL peptides (each peptide at 2 µM, 30 wells per a peptide pool), or the HA peptide (30 wells) in a 150 µl volume of RPMI 1640 culture medium supplemented with 2 mM L-glutamine, 20 µM 2-mercaptoethanol, 1 mM sodium pyruvate, nonessential amino acids, 100 IU/ml penicillin, 100 µg/ml streptomycin, 10 mM HEPES (all from Lonza, Verviers, Belgium) and 5% inactivated human AB serum (Sigma-Aldrich, St. Louis, MO). On day 5, 50 µl of fresh medium supplemented with 10 IU/ml of IL-2 (Strathmann Biotech, Hannover, Germany) was added to the cultures. On day 7, half of the culture medium was replaced without IL-2. On day 10, half of the cells in the cultures were split into daughter plates for testing specificity by stimulating the cells with or without the pooled peptides (each peptide at 2 µM) together with autologous γ-irradiated (3000 rad) PBMCs (5×10^5) as antigen-presenting cells. After an incubation of 72 h, [3H]thymidine was added (1 µCi per well; GE Healthcare, Little Chalfont, UK), and after an additional 16 h, the cells were harvested onto glass fiber filters on day 14 (Wallac, Turku, Finland). Radioactivity was measured by scintillation counting (Wallac Micro Beta 1540) and the results were expressed as counts per minute (CPM). The stimulation indices (SI; CPM in the presence of antigen divided by CPM in the absence of antigen) and CPM differences between stimulated and unstimulated wells (ΔCPM) were determined. On the same day, positive cultures (ΔCPM>2000 and SI>2) were restimulated in 48-well plates with autologous γ-irradiated PBMCs (10^6/well), 2 µM of the peptides and 25 IU/ml of IL-2. On day 28, the established TCLs were propagated once more with peptides, IL-2 and PBMCs. After stimulations, half of the culture medium was replaced with fresh medium supplemented with IL-2 every 2–3 days. The peptide specificity of TCLs was defined as described below.
T cell proliferation assays were set in duplicates in 96-well U-bottomed plates with 2.5×10^4 cultured T cells, 5×10^4 autologous γ-irradiated (3000 rad) PBMCs as APCs, and antigens as indicated. In order to determine the epitope specificity of the established TCLs induced with peptide pools, the T cell lines were tested with each of the three individual peptides in the pool at 10 µM on day 28. Proliferation was measured by radionuclide uptake (see above). […] On day 42, peptide-specific TCLs were tested with individual Can f 1 peptides, as well as their TL homologues, at several concentrations up to 10 µM. The functional T cell receptor (TCR) avidities of the TCLs for a peptide were assessed by determining effective concentration 50 (EC50) values (i.e., the concentration of a peptide needed to induce a half-maximal proliferative response) from the dose-response curves of individual TCLs.

DRB1*1501 = DRB1*1501 (Homo sapiens, UniProt P01903+P01911); assay: HLA class II peptide-binding assay (competitive ELISA); conditions: immunopurified HLA, reference peptide IC50 775 nM, ratio ≤20 high affinity, 20–200 moderate affinity
DRB1*0401 = DRB1*0401 (Homo sapiens, UniProt P01903+P01911, A100K/A169T/F76Y/I96L/K127E/L162R/M171V/N62H/P40V/Q125Y/R42H/S133A/S149N/S66Y/V115G/V209L/W38E); assay: as above; conditions: immunopurified HLA, reference peptide IC50 8 nM, ratio ≤20 high affinity, 20–200 moderate affinity
DRB1*1101 = DRB1*1101 (Homo sapiens, UniProt P01903+P01911, A100R/A169T/A87E/I96F/K41T/L162R/M171V/P40S/Q125H/Q178H/Q39Y/Q99D/R42S/S66Y/T262R/V115G/W38E); assay: as above; conditions: immunopurified HLA, reference peptide IC50 50 nM, ratio ≤20 high affinity, 20–200 moderate affinity
DRB3 = assay: as above; parameters: species or system human
DRB5 = assay: as above; parameters: species or system human
DRB1*0701 = DRB1*0701 (Homo sapiens, UniProt P01903+P01911, A100R/A102G/A103Q/D57E/D86V/E43K/F76Y/K127E/L162R/M171V/P40G/Q125H/Q99D/R33Q/R42Y/R54Q/S133A/S66F/T210M/V115G/Y107V/Y59L/Y89S); assay: as above; conditions: immunopurified HLA, reference peptide IC50 5 nM, ratio ≤20 high affinity, 20–200 moderate affinity
[2] = test system: peptide-specific CD4+ T cell lines; assay: Proliferation assay, functional TCR avidity (EC50) of peptide-specific TCLs; format: cell-based, human

| Sequence | relative binding ratio (IC50 of the test peptide divided by IC50 of the reference peptide) (DRB1*1301) | relative binding ratio (IC50 of the test peptide divided by IC50 of the reference peptide) (DRB4; DRB4, competitive ELISA, immunopurified HLA, reference peptide IC50 8 nM, ratio ≤20 high affinity, 20–200 moderate affinity) | relative binding ratio (IC50 of the test peptide divided by IC50 of the reference peptide) (DRB1*0301) | relative binding ratio (IC50 of the test peptide divided by IC50 of the reference peptide) (DRB1*0101) | positive specific TCLs out of 30 replicate wells per subject ([1]; allergic subjects) | positive specific TCLs out of 30 replicate wells per subject ([1]; nonallergic subjects) | relative binding ratio (IC50 of the test peptide divided by IC50 of the reference peptide) (DRB1*1501) | relative binding ratio (IC50 of the test peptide divided by IC50 of the reference peptide) (DRB1*0401) | relative binding ratio (IC50 of the test peptide divided by IC50 of the reference peptide) (DRB1*1101) | relative binding ratio (IC50 of the test peptide divided by IC50 of the reference peptide) (DRB3; DRB3, competitive ELISA, immunopurified HLA, reference peptide IC50 60 nM, ratio ≤20 high affinity, 20–200 moderate affinity) | relative binding ratio (IC50 of the test peptide divided by IC50 of the reference peptide) (DRB5; DRB5, competitive ELISA, immunopurified HLA, reference peptide IC50 7 nM, ratio ≤20 high affinity, 20–200 moderate affinity) | relative binding ratio (IC50 of the test peptide divided by IC50 of the reference peptide) (DRB1*0701) | relative binding ratio (IC50 of the test peptide divided by IC50 of the reference peptide) (DRB4) | percentage of high-avidity (EC50<0.1 µM) TCLs [2] | estimated average precursor frequency of peptide-specific T cells ([1]; allergic subjects) | estimated average precursor frequency of peptide-specific T cells ([1]; nonallergic subjects) | relative binding ratio (IC50 of the test peptide divided by IC50 of the reference peptide) (DRB3) | relative binding ratio (IC50 of the test peptide divided by IC50 of the reference peptide) (DRB5) |
| --- | --- | --- | --- | --- | --- | --- | --- | --- | --- | --- | --- | --- | --- | --- | --- | --- | --- | --- |
| PGKYTAYEGQRVVFIQ [pC4, Can f 1 peptide p73–88] | 56 | 722 | 13 | 1 | 5.0±1.15% | 4.2±1.61% | 0.4 | 82 | 133 | 61 | 14 | 1 |  |  |  |  |  |  |
| PKYVKQNTLKLAT [HA, influenza hemagglutinin (HA) peptide (amino acids 306–318), viral control peptide, reference compound] |  |  |  |  | 12.68±10.98% | 8.60±13.37% |  |  |  |  |  |  | > 1 179 | 25.0% and 22.6% | 4.2 per 10^6 CD4^+ T cells | 2.9 per 10^6 CD4^+ T cells | > 167 | 1 |
